The values that follow come from paper PMC6009935 (Journal of Enzyme Inhibition and Medicinal Chemistry, 2017).

Test [1] relates to thermal nociception. As to the kind of experiment: Tail flick test after i.c.v. injection. Format: in vivo, mice. As to conditions: i.c.v. 1, 5 and 10 µg/mouse; 15-90 min. The method, then:
(§1) In vivo nociception tests
(§2) Male CD-1 mice (Harlan, Italy) weighting 25-30 g were used for all experiments. Mice were housed for at least 1 week before the experimental sessions in colony cages (7 mice in each cage) under standard light (from 7.00 a.m. to 7.00 p.m.), temperature (21±1°C), relative humidity (60±10%) with food and water available ad libitum. The research protocol was approved by the Service for Biotechnology and Animal Welfare of the Istituto Superiore di Sanità and authorized by the Italian Ministry of Health, according to Legislative Decree 26/14, which implemented the European Directive 2010/63/UE on laboratory animal protection in Italy. […]
(§3) In the case of hot plate test, the thermal nociception was assessed with a commercially available apparatus consisting in a metal plate 25x25 cm (Ugo Basile, Italy) heated to a constant temperature of 55±0.1°C, on which a plastic cylinder (20 cm diameter, 18 cm high) was placed. The time of latency (s) was recorded from the moment the animal was inserted inside the cylinder up to when it licked its paws or jerked them off the hot plate; jumped off the hot plate; the latency exceeded the cut-off time of 60 s. The baseline was calculated as mean of three readings recorded before testing at intervals of 15-30 min. The time course of latency was then determined at 15, 30, 45, 60, and 90 min after treatment. […]
(In general: Thermal pain tests record how soon the animal reacts.)

The test system of test [2] is thermal nociception. Description: Hot plate test after i.c.v. injection. To be noted: i.c.v. 1, 5 and 10 µg/mouse; 15-90 min. Format: in vivo, mice. The method, then: as §1, §2, §3

As for `Cc1c(C(=O)NC2CCN(C(=O)[C@H](Cc3ccccc3)NC(=O)CNC(=O)[C@@H](C)NC(=O)[C@@H](N)Cc3ccc(O)cc3)CC2)nn(-c2ccc(Cl)cc2Cl)c1-n1cccc1` [Compound 9], the “latency of the nociceptive response, tail flick test” value in the test with thermal nociception [1] is listed as “absence of effect”. Also, in the test on thermal nociception [2], the “behavioral response to thermal nociceptive stimuli, hot plate test” value is “no difference in treatments”.
